# Test results: US20260306640A1, “TECHNOLOGIES TARGETING CELL STATES” (Auron Therapeutics, Inc., priority 2023, published 2026)
# Assays:
# KAT2B = KAT2B (Homo sapiens, UniProt Q92831); assay: KAT2B degradation, Western Blot (Jess), NCI-H1048 cells; assay type: cell-based; parameters: degrader, Western blot (Jess); conditions: NCI-H1048 cells, KAT2B, 24 h, Western Blot, vs DMSO; read-out: KAT2B NCI-H1048 DC50
# In short: (§1)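 NCI-H1048 cells grown in HITES medium with 5% FBS were treated with compounds for 24 h at 37° C. Lysates were run by capillary Western (Jess) with KAT2A or KAT2B antibodies and chemiluminescent detection. DC50 derived from percent protein reduction versus DMSO control.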
# KAT2A = KAT2A (Homo sapiens, UniProt Q92830); assay: KAT2A degradation, Western Blot (Jess), NCI-H1048 cells; assay type: cell-based; parameters: degrader, Western blot (Jess); conditions: NCI-H1048 cells, KAT2A, 24 h, Western Blot, vs DMSO; read-out: KAT2A NCI-H1048 DC50
# In short: as §1
# Sequence of KAT2A (Q92830 whole entry): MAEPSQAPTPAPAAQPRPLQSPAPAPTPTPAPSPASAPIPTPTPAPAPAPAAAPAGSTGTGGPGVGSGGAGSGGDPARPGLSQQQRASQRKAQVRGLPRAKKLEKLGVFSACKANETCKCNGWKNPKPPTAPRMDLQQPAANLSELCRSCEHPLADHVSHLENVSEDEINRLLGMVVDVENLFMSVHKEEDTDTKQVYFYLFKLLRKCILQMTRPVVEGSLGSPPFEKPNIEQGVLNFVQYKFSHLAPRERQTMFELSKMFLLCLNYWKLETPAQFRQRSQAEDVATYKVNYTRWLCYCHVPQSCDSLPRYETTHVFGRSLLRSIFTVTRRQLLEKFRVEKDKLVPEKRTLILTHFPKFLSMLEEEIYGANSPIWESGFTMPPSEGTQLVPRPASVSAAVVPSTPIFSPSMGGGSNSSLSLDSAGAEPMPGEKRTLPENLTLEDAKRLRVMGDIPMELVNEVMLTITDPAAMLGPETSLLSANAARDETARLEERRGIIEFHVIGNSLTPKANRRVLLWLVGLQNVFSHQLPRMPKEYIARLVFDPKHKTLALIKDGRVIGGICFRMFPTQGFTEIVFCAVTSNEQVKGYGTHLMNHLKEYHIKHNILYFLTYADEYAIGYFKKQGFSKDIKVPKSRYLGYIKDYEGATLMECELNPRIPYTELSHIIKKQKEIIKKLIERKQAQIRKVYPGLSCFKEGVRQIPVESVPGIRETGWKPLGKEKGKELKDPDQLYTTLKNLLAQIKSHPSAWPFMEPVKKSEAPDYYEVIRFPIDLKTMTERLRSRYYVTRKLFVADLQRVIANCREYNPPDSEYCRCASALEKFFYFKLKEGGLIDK
# Sequence of KAT2B (Q92831 whole entry): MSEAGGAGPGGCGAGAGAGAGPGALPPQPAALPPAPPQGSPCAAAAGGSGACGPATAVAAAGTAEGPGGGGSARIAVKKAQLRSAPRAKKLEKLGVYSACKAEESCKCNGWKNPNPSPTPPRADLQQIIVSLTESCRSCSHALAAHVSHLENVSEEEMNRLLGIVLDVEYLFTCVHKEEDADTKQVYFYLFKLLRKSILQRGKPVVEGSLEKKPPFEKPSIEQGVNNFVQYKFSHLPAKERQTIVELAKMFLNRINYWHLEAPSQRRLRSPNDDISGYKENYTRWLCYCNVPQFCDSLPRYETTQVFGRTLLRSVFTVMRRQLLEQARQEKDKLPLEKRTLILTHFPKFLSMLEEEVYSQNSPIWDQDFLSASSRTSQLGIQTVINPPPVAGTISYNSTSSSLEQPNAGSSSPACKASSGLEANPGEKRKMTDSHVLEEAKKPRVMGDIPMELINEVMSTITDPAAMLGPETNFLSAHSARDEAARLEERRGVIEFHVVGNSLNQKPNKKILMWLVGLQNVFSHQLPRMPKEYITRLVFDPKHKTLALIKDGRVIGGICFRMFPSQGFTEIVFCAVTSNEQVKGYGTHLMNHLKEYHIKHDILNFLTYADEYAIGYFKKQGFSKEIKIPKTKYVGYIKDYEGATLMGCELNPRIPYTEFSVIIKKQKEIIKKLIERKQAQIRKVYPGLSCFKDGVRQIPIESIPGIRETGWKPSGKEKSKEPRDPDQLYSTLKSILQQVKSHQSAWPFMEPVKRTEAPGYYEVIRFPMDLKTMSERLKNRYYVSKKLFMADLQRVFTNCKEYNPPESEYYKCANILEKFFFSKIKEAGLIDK
SMILES,DC50 (KAT2B) [nM],DC50 (KAT2A) [nM]
Cc1c(N[C@@H]2C[C@H](c3ccc(C(=O)N4CCC5(CC4)CCN(c4ccc6c(C7CCC(=O)NC7=O)nccc6c4)CC5)cc3)CN(C)C2)cnn(C)c1=O (stereo partly drawn) [Compound 295],1 to 30,< 1
CN1C[C@H](Nc2cnn(C)c(=O)c2Cl)C[C@H](c2ccc(C(=O)N3CCC4(CC3)CCN(c3ccc5c(C6CCC(=O)NC6=O)cncc5c3)CC4)cc2)C1 (stereo partly drawn) [Compound 296],< 1,< 1
CN1C[C@H](Nc2cnn(C)c(=O)c2Br)C[C@H](c2ccc(C(=O)N3CCC4(CC3)CCN(c3ccc5c(C6CCC(=O)NC6=O)cncc5c3)CC4)cc2)C1 (stereo partly drawn) [Compound 297],< 1,< 1
CN1C[C@H](Nc2cnn(C)c(=O)c2Cl)C[C@H](c2ccc(CN3CCN(c4ccc5cc(C6CCC(=O)NC6=O)cnc5c4)CC3)cc2)C1 (stereo partly drawn) [Compound 298],> 30,< 1
CN1C[C@H](Nc2cnn(C)c(=O)c2Br)C[C@H](c2ccc(CN3CCN(c4ccc5cc(C6CCC(=O)NC6=O)cnc5c4)CC3)cc2)C1 (stereo partly drawn) [Compound 299],1 to 30,< 1
CN1C[C@H](Nc2cnn(C)c(=O)c2Br)C[C@H](c2ccc(C(=O)N3CCC4(CC3)CCN(c3ccc5c(c3)C(=O)N(C3CCC(=O)NC3=O)C5=O)CC4)cc2)C1 (stereo partly drawn) [Compound 300],< 1,< 1
CN1C[C@H](Nc2cnn(C)c(=O)c2Cl)C[C@H](c2ccc(C(=O)N3CCC4(CC3)CCN(c3ccc5c(c3)C(=O)N(C3CCC(=O)NC3=O)C5=O)CC4)cc2)C1 (stereo partly drawn) [Compound 301],< 1,< 1
CN1C[C@H](Nc2cnn(C)c(=O)c2Cl)C[C@H](c2ccc(C(=O)N3CCC4(CC3)CCN(c3cccc5c3C(=O)N(C3CCC(=O)NC3=O)C5=O)CC4)cc2)C1 (stereo partly drawn) [Compound 302],1 to 30,1 to 30
Cc1c(N[C@@H]2C[C@H](c3ccc(CN4CCN(c5ccc6c(c5)C(=O)N(C5CCC(=O)NC5=O)C6=O)CC4)cc3)CN(C)C2)cnn(C)c1=O (stereo partly drawn) [Compound 303],1 to 30,< 1
CN1C[C@H](Nc2cnn(C)c(=O)c2Br)C[C@H](c2ccc(CN3CCN(c4cc5c(cc4F)C(=O)N(C4CCC(=O)NC4=O)C5=O)CC3)cc2)C1 (stereo partly drawn) [Compound 304],1 to 30,< 1
CN1C[C@H](Nc2cnn(C)c(=O)c2Cl)C[C@H](c2ccc(CN3CCN(c4cc5c(cc4F)C(=O)N(C4CCC(=O)NC4=O)C5=O)CC3)cc2)C1 (stereo partly drawn) [Compound 305],> 30,1 to 30
Cc1c(N[C@@H]2C[C@H](c3ccc(CN4CCN(c5cc6c(cc5F)C(=O)N(C5CCC(=O)NC5=O)C6=O)CC4)cc3)CN(C)C2)cnn(C)c1=O (stereo partly drawn) [Compound 306],> 30,1 to 30
Cc1cc(N2CC(N3CCN(C(=O)c4ccc([C@H]5C[C@@H](Nc6cnn(C)c(=O)c6Br)CN(C)C5)cc4)CC3)C2)ccc1C1CCC(=O)NC1=O (stereo partly drawn) [Compound 307],1 to 30,< 1
Cc1cc(N2CC(N3CCN(C(=O)c4ccc([C@H]5C[C@@H](Nc6cnn(C)c(=O)c6Cl)CN(C)C5)cc4)CC3)C2)ccc1C1CCC(=O)NC1=O (stereo partly drawn) [Compound 308],1 to 30,< 1
Cc1cc(N2CCC(N3CCN(C(=O)c4ccc([C@H]5C[C@@H](Nc6cnn(C)c(=O)c6Br)CN(C)C5)cc4)CC3)CC2)ccc1C1CCC(=O)NC1=O (stereo partly drawn) [Compound 309],> 30,< 1
Cc1cc(N2CCC(N3CCN(C(=O)c4ccc([C@H]5C[C@@H](Nc6cnn(C)c(=O)c6Cl)CN(C)C5)cc4)CC3)CC2)ccc1C1CCC(=O)NC1=O (stereo partly drawn) [Compound 310],> 30,< 1
Cc1cc(N2CCN(C3CN(C(=O)c4ccc([C@H]5C[C@@H](Nc6cnn(C)c(=O)c6Br)CN(C)C5)cc4)C3)CC2)ccc1C1CCC(=O)NC1=O (stereo partly drawn) [Compound 311],> 30,1 to 30

SMILES,DC50 (KAT2B) [nM],DC50 (KAT2A) [nM]
Cc1cc(N2CCN(C3CCN(C(=O)c4ccc([C@H]5C[C@@H](Nc6cnn(C)c(=O)c6Br)CN(C)C5)cc4)CC3)CC2)ccc1C1CCC(=O)NC1=O (stereo partly drawn) [Compound 312],> 30,< 1
CN1C[C@H](Nc2ccn(C)c(=O)c2Br)C[C@H](c2ccc(C(=O)N3CCC4(CCC(c5ccc(C6CCC(=O)NC6=O)cc5)CC4)CC3)cc2)C1 (stereo partly drawn) [Compound 313],< 1,< 1
CN1C[C@H](Nc2ccn(C)c(=O)c2Cl)C[C@H](c2ccc(C(=O)N3CCC4(CCC(c5ccc(C6CCC(=O)NC6=O)cc5)CC4)CC3)cc2)C1 (stereo partly drawn) [Compound 314],1 to 30,< 1
Cc1c(N[C@@H]2C[C@H](c3ccc(C(=O)N4CCC5(CCC(c6ccc(C7CCC(=O)NC7=O)cc6)CC5)CC4)cc3)CN(C)C2)ccn(C)c1=O (stereo partly drawn) [Compound 315],1 to 30,< 1
Cc1c(N[C@@H]2C[C@H](c3ccc(C(=O)N4CCC5(CC4)CCN(c4ccc(C6CCC(=O)NC6=O)c(F)c4)CC5)cc3)CN(C)C2)cnn(C)c1=O (stereo partly drawn) [Compound 316],< 1,< 1
CN1C[C@H](Nc2cnn(C)c(=O)c2Cl)C[C@H](c2ccc(C(=O)N3CCC4(CC3)CCN(c3ccc(C5CCC(=O)NC5=O)c(F)c3)CC4)cc2)C1 (stereo partly drawn) [Compound 317],< 1,< 1
COc1cc(N2CCC3(CCN(C(=O)c4ccc([C@H]5C[C@@H](Nc6cnn(C)c(=O)c6Br)CN(C)C5)cc4)CC3)CC2)ccc1C1CCC(=O)NC1=O (stereo partly drawn) [Compound 318],1 to 30,< 1
COc1cc(C2CCC3(CC2)CCN(C(=O)c2ccc([C@H]4C[C@@H](Nc5cnn(C)c(=O)c5Cl)CN(C)C4)cc2)CC3)ccc1C1CCC(=O)NC1=O (stereo partly drawn) [Compound 319],1 to 30,< 1
COc1cc(C2CCC3(CC2)CCN(C(=O)c2ccc([C@H]4C[C@@H](Nc5cnn(C)c(=O)c5C)CN(C)C4)cc2)CC3)ccc1C1CCC(=O)NC1=O (stereo partly drawn) [Compound 320],1 to 30,< 1
CN1C[C@H](Nc2cnn(C)c(=O)c2Br)C[C@H](c2ccc(C(=O)N3CCC4(CCC(c5ccc(C6CCC(=O)NC6=O)cn5)CC4)CC3)cc2)C1 (stereo partly drawn) [Compound 321],< 1,< 1
CN1C[C@H](Nc2cnn(C)c(=O)c2Cl)C[C@H](c2ccc(C(=O)N3CCC4(CCC(c5ccc(C6CCC(=O)NC6=O)cn5)CC4)CC3)cc2)C1 (stereo partly drawn) [Compound 322],< 1,< 1
CN1C[C@H](Nc2cnn(C)c(=O)c2Br)C[C@H](c2ccc(C(=O)N3CCC4(CCC(c5ccc(C6CCC(=O)NC6=O)cc5)CC4)CC3)cc2)C1 (stereo partly drawn) [Compound 323],< 1,< 1
CN1C[C@H](Nc2cnn(C)c(=O)c2Cl)C[C@H](c2ccc(C(=O)N3CCC4(CCC(c5ccc(C6CCC(=O)NC6=O)cc5)CC4)CC3)cc2)C1 (stereo partly drawn) [Compound 324],< 1,< 1
CN1C[C@H](Nc2cnn(C)c(=O)c2Br)C[C@H](c2ccc(C(=O)N3CCC4(CCC(c5ccc(C6CCC(=O)NC6=O)c(F)c5)CC4)CC3)cc2)C1 (stereo partly drawn) [Compound 325],< 1,< 1
CN1C[C@H](Nc2cnn(C)c(=O)c2Br)C[C@H](c2ccc(C(=O)N3CCC4(CCC(c5ccc(C6CCC(=O)NC6=O)cc5)CC4)CC3)cc2)C1 (stereo partly drawn) [Compound 326],< 1,< 1
CN1C[C@H](Nc2cnn(C)c(=O)c2Cl)C[C@H](c2ccc(C(=O)N3CCC(Cc4ccc(N5CCC(=O)NC5=O)c(F)c4)CC3)cc2)C1 [Compound 327],1 to 30,< 1
